Reference: patent US20100092526A1, “NANOEMULSION THERAPEUTIC COMPOSITIONS AND METHODS OF USING THE SAME” (NanoBio Corporation, priority 2008, published 2010)
≈ marks a conversion by molar mass, not a printed value. Where “and” joins values, the source holds several entries; their conditions need not be identical. Identical values can stand only once.

Assays:
Format in all cases: cell-based
[1] = tested on: methicillin-resistant Staphylococcus aureus (MRSA); test: Susceptibility (MIC/MBC) of MRSA clinical isolates; conditions: for MIC50(15) / MIC90(26) / MBC50(15) / MBC90(26): 29 MRSA clinical isolates; for MIC50(15) / MBC50(15): rank 15; for MIC90(26) / MBC90(26): rank 26; for MIC / MBC: individual MRSA clinical isolates, values listed by rank order 1-29
[2] = tested on: Burkholderia strains; test: Checkerboard synergy study (FIC/FBC index); conditions: combined with P4075EC+EDTA
[3] = tested on: Stenotrophomonas strains; test: Checkerboard synergy study (FIC/FBC index); conditions: combined with P4075EC+EDTA
[4] = tested on: Acinetobacter strains; test: Checkerboard synergy study (FIC/FBC index); conditions: combined with P4075EC+EDTA
[5] = share of ten Burkholderia strains with synergy
[6] = share of Stenotrophomonas strains with synergy
[7] = share of 10 Acinetobacter strains with synergy

CC(=O)O.NCc1ccc(S(N)(=O)=O)cc1 [Maf. Acet]
MIC50(15) [1]: >128 µg/mL | MIC90(26) [1]: >128 µg/mL | MIC [1]: >128 μg/ml (28×) and 128 μg/ml

C/C(=C\C(=O)OCCCCCCCCC(=O)O)C[C@@H]1OC[C@H](C[C@@H]2O[C@H]2[C@@H](C)[C@H](C)O)[C@@H](O)[C@H]1O [Mup]
MBC50(15) [1]: >2 µg/mL | MIC50(15) [1]: 0.25 µg/mL (≈ 0.499 µM) | MBC90(26) [1]: >64 µg/mL | MIC90(26) [1]: >64 µg/mL | MBC [1]: >64 μg/ml (9×) and >8 μg/ml and >4 μg/ml (5×) and >2 μg/ml (11×) and 1 μg/ml (3×) | MIC [1]: >64 μg/ml (8×) and 16 μg/ml and 0.25 μg/ml (9×) and 0.125 μg/ml (11×)

C/C(=C\C(=O)OCCCCCCCCC(=O)O)C[C@@H]1OC[C@H](C[C@@H]2O[C@H]2[C@@H](C)[C@H](C)O)[C@@H](O)[C@H]1O [Mupirocin, mupirocin]
isolates resistant ([1]; MRSA isolates): 31%

Cc1onc(-c2ccccc2)c1C(=O)N[C@@H]1C(=O)N2[C@@H]1SC(C)(C)[C@@H]2C(=O)O [Ox]
MBC50(15) [1]: >16 µg/mL | MIC50(15) [1]: >16 µg/mL | MBC90(26) [1]: >16 µg/mL | MIC90(26) [1]: >16 µg/mL | MBC [1]: >16 μg/ml (28×) and 1 μg/ml | MIC [1]: >16 μg/ml (26×) and 16 μg/ml (2×) and 0.5 μg/ml

NC[C@H]1O[C@H](O[C@H]2[C@H](O)[C@@H](O[C@H]3O[C@H](CO)[C@@H](O)[C@H](N)[C@H]3O)[C@H](N)C[C@@H]2N)[C@H](N)C[C@@H]1O [Tobra]
FBC ([2]; isolate NB21): 0.48 | FIC ([2]; isolate NB21): 0.27 | Synergy (FBC) ([2]; isolate NB21): yes | Synergy (FIC) ([2]; isolate NB21): yes | FBC ([2]; isolate NB22): 1.23 | FIC ([2]; isolate NB22): 0.35 | Synergy (FBC) ([2]; isolate NB22): indifferent | Synergy (FIC) ([2]; isolate NB22): yes | FBC ([2]; isolate NB23): 1.09 | FIC ([2]; isolate NB23): 1.06 | Synergy (FBC) ([2]; isolate NB23): indifferent | Synergy (FIC) ([2]; isolate NB23): indifferent | FBC ([2]; isolate NB24): 1.36 | FIC ([2]; isolate NB24): 1.31 | Synergy (FBC) ([2]; isolate NB24): indifferent | Synergy (FIC) ([2]; isolate NB24): indifferent | FBC ([2]; isolate NB25): 0.99 | FIC ([2]; isolate NB25): 1.45 | Synergy (FBC) ([2]; isolate NB25): indifferent | Synergy (FIC) ([2]; isolate NB25): indifferent | FBC ([2]; isolate NB26): 0.92 | FIC ([2]; isolate NB26): 0.12 | Synergy (FBC) ([2]; isolate NB26): indifferent | Synergy (FIC) ([2]; isolate NB26): yes | FBC ([2]; isolate NB27): 1.27 | FIC ([2]; isolate NB27): 1.44 | Synergy (FBC) ([2]; isolate NB27): indifferent | Synergy (FIC) ([2]; isolate NB27): indifferent | FBC ([2]; isolate NB28b): 1.06 | FIC ([2]; isolate NB28b): 0.54 | Synergy (FBC) ([2]; isolate NB28b): indifferent | Synergy (FIC) ([2]; isolate NB28b): yes | FBC ([2]; isolate NB29): 0.07 | FIC ([2]; isolate NB29): 0.32 | Synergy (FBC) ([2]; isolate NB29): yes | Synergy (FIC) ([2]; isolate NB29): yes | FBC ([2]; isolate NB30): 0.54 | FIC ([2]; isolate NB30): 0.27 | Synergy (FBC) ([2]; isolate NB30): yes | Synergy (FIC) ([2]; isolate NB30): yes | % FBC Synergy [2, 5]: 30% | % FIC Synergy [2, 5]: 50% | FBC ([3]; isolate NB42): 2.15 | FIC ([3]; isolate NB42): 0.14 | Synergy (FBC) ([3]; isolate NB42): indifferent | Synergy (FIC) ([3]; isolate NB42): yes | FBC ([3]; isolate NB43): 2.29 | FIC ([3]; isolate NB43): 1.40 | Synergy (FBC) ([3]; isolate NB43): indifferent | Synergy (FIC) ([3]; isolate NB43): indifferent | FBC ([3]; isolate NB44): 2.86 | FIC ([3]; isolate NB44): 1.5 | Synergy (FBC) ([3]; isolate NB44): indifferent | Synergy (FIC) ([3]; isolate NB44): indifferent | FBC ([3]; isolate NB45): 1.50 | FIC ([3]; isolate NB45): 0.97 | Synergy (FBC) ([3]; isolate NB45): indifferent | Synergy (FIC) ([3]; isolate NB45): indifferent | FBC ([3]; isolate Steno 1): 1.57 | FIC ([3]; isolate Steno 1): 0.79 | Synergy (FBC) ([3]; isolate Steno 1): indifferent | Synergy (FIC) ([3]; isolate Steno 1): indifferent | FBC ([3]; isolate Steno 2): 2.23 | FIC ([3]; isolate Steno 2): 0.04 | Synergy (FBC) ([3]; isolate Steno 2): indifferent | Synergy (FIC) ([3]; isolate Steno 2): yes | FBC ([3]; isolate Steno 3): 1.29 | FIC ([3]; isolate Steno 3): 0.79 | Synergy (FBC) ([3]; isolate Steno 3): indifferent | Synergy (FIC) ([3]; isolate Steno 3): indifferent | FBC ([3]; isolate Steno 4): 1.61 | FIC ([3]; isolate Steno 4): 1.72 | Synergy (FBC) ([3]; isolate Steno 4): indifferent | Synergy (FIC) ([3]; isolate Steno 4): indifferent | FBC ([3]; isolate Steno 6): 0.89 | FIC ([3]; isolate Steno 6): 0.59 | Synergy (FBC) ([3]; isolate Steno 6): indifferent | Synergy (FIC) ([3]; isolate Steno 6): indifferent | FBC ([3]; isolate Steno 8): 1.15 | FIC ([3]; isolate Steno 8): 0.63 | Synergy (FBC) ([3]; isolate Steno 8): indifferent | Synergy (FIC) ([3]; isolate Steno 8): indifferent | % FBC Synergy [3, 6]: 0% | % FIC Synergy [3, 6]: 20% | FBC ([4]; isolate NB31): 1.50 | FIC ([4]; isolate NB31): 0.98 | Synergy (FBC) ([4]; isolate NB31): no | Synergy (FIC) ([4]; isolate NB31): indifferent | FBC ([4]; isolate NB32): 1.79 | FIC ([4]; isolate NB32): 0.88 | Synergy (FBC) ([4]; isolate NB32): no | Synergy (FIC) ([4]; isolate NB32): indifferent | FBC ([4]; isolate NB33): 1.75 | Synergy (FBC) ([4]; isolate NB33): no | Synergy (FIC) ([4]; isolate NB33): indifferent | FBC ([4]; isolate NB34): 0.24 | FIC ([4]; isolate NB34): 0.41 | Synergy (FBC) ([4]; isolate NB34): yes | Synergy (FIC) ([4]; isolate NB34): yes | FIC ([4]; isolate NB35): 1.21 | Synergy (FBC) ([4]; isolate NB35): no | Synergy (FIC) ([4]; isolate NB35): indifferent | FBC ([4]; isolate NB36): 2.29 | FIC ([4]; isolate NB36): 3.30 | Synergy (FBC) ([4]; isolate NB36): no | Synergy (FIC) ([4]; isolate NB36): indifferent | FBC ([4]; isolate NB37): 1.72 | FIC ([4]; isolate NB37): 0.75 | Synergy (FBC) ([4]; isolate NB37): no | Synergy (FIC) ([4]; isolate NB37): indifferent | FBC ([4]; isolate NB38): 1.57 | FIC ([4]; isolate NB38): 1.05 | Synergy (FBC) ([4]; isolate NB38): no | Synergy (FIC) ([4]; isolate NB38): indifferent | FBC ([4]; isolate NB39): 3.52 | FIC ([4]; isolate NB39): 3.30 | Synergy (FBC) ([4]; isolate NB39): no | Synergy (FIC) ([4]; isolate NB39): indifferent | FBC ([4]; isolate NB40): 3.01 | FIC ([4]; isolate NB40): 3.01 | Synergy (FBC) ([4]; isolate NB40): no | Synergy (FIC) ([4]; isolate NB40): indifferent | % FBC Synergy [4, 7]: 10% | % FIC Synergy [4, 7]: 10%
